Test results from ChEMBL document CHEMBL4837255, “Overcoming the Pregnane X Receptor Liability: Rational Design to Eliminate PXR-Mediated CYP Induction” (ACS Med Chem Lett, 2021).
pEC50, pIC50: −log10 of the molar value.

Key:
PXR (NR1I2) = molecular target: T1, PXR (NR1I2) (Homo sapiens, UniProt O75469); experiment: Activation of full length human PXR expressed in human HepG2 cells co-expressing luciferase of CYP3A4 promoter transcription assessed as increase of luciferase activity at 50 uM preincubated for 24 hrs followed by addition of luciferase substrate and measured by hPXR Gene reporter assay relative to control; format: ADME, cell-based
T1 sequence (O75469 whole entry): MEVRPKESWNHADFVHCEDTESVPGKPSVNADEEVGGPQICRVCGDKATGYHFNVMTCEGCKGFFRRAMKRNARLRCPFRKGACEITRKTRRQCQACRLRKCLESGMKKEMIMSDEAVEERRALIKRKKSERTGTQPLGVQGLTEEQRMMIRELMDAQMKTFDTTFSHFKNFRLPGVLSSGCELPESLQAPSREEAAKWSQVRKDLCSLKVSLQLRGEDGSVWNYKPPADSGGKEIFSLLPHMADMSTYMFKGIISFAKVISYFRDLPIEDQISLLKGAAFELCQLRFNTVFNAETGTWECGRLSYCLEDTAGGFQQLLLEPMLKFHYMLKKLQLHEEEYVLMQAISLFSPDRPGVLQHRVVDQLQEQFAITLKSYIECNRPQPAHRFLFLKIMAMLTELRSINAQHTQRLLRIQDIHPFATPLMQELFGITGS

[1] = molecular target: T2, Nuclear receptor subfamily 1 group I member 2 (Homo sapiens, UniProt O75469); experiment: Activation of full length human PXR expressed in human HepG2 cells co-expressing luciferase of CYP3A4 promoter transcription assessed as increase of luciferase activity preincubated for 24 hrs followed by addition of luciferase substrate and measured by hPXR Gene reporter assay; format: ADME, cell-based
T2 sequence (O75469 whole entry): T1 sequence (O75469 whole entry)

[2] = molecular target: T3, Extracellular calcium-sensing receptor (Mus musculus, UniProt Q9QY96); experiment: Antagonist activity at mouse CaSR; format: functional
T3 sequence (Q9QY96 whole entry): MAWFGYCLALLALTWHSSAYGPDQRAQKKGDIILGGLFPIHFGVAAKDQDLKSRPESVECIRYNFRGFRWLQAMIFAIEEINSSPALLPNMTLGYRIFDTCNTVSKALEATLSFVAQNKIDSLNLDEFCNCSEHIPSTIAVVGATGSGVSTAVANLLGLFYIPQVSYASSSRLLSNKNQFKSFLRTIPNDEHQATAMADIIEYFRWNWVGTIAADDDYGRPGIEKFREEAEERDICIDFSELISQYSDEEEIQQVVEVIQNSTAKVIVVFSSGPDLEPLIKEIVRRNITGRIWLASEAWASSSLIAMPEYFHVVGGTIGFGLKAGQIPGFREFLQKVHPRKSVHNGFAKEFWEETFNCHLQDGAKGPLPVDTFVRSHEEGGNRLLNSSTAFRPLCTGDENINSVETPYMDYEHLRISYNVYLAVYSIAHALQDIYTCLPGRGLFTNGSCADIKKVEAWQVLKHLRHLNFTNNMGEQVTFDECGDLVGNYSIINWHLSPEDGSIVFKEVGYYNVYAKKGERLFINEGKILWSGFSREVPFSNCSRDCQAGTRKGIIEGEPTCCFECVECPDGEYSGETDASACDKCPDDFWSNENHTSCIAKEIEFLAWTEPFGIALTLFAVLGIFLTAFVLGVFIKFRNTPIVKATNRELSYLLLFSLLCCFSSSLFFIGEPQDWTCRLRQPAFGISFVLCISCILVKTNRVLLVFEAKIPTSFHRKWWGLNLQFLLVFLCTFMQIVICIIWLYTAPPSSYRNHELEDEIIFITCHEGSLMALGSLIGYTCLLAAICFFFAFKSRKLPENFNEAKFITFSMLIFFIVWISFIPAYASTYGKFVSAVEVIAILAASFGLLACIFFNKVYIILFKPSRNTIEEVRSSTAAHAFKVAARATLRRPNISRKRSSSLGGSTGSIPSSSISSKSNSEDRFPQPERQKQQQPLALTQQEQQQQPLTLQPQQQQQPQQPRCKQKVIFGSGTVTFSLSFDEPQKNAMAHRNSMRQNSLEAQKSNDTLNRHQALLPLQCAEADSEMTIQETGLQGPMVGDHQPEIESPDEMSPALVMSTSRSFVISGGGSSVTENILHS

[3] = AUC (0 to t) in mouse at 300 mg/kg/day, po measured after 1 day; format: ADME, organism-based; design: time 1 day, dose 300 mg/kg/day; conditions: in vivo
[4] = AUC (0 to t) in mouse at 1000 mg/kg/day, po measured after 1 day; format: ADME, organism-based; design: time 1 day, dose 1000 mg/kg/day; conditions: in vivo
[5] = AUC (0 to t) in mouse at 2000 mg/kg/day, po measured after 1 day; format: ADME, organism-based; design: time 1 day, dose 2000 mg/kg/day; conditions: in vivo
[6] = AUC (0 to t) in mouse at 300 mg/kg/day, po measured after 10 days; format: ADME, organism-based; design: time 10 day, dose 300 mg/kg/day; conditions: in vivo
[7] = AUC (0 to t) in mouse at 1000 mg/kg/day, po measured after 10 days; format: ADME, organism-based; design: time 10 day, dose 1000 mg/kg/day; conditions: in vivo
[8] = AUC (0 to t) in mouse at 2000 mg/kg/day, po measured after 10 days; format: ADME, organism-based; design: time 10 day, dose 2000 mg/kg/day; conditions: in vivo
[9] = Cmax in mouse at 300 mg/kg/day, po measured after 1 day; format: ADME, organism-based; design: route oral, dose 300 mg/kg/day, time 1 day; conditions: in vivo
[10] = Cmax in mouse at 1000 mg/kg/day, po measured after 1 day; format: ADME, organism-based; design: route oral, dose 1000 mg/kg/day, time 1 day; conditions: in vivo
[11] = Cmax in mouse at 2000 mg/kg/day, po measured after 1 day; format: ADME, organism-based; design: route oral, dose 2000 mg/kg/day, time 1 day; conditions: in vivo
[12] = Cmax in mouse at 300 mg/kg/day, po measured after 10 days; format: ADME, organism-based; design: route oral, time 10 day, dose 300 mg/kg/day; conditions: in vivo
[13] = Cmax in mouse at 1000 mg/kg/day, po measured after 10 days; format: ADME, organism-based; design: route oral, dose 1000 mg/kg/day, time 10 day; conditions: in vivo
[14] = Cmax in mouse at 2000 mg/kg/day, po measured after 10 days; format: ADME, organism-based; design: route oral, time 10 day, dose 2000 mg/kg/day; conditions: in vivo
[15] = AUC (0 to t) in rat at 300 mg/kg/day measured after 1 day; format: ADME, organism-based; design: dose 300 mg/kg/day, time 1 day; conditions: in vivo
[16] = AUC (0 to t) in rat at 300 mg/kg/day measured after 10 days; format: ADME, organism-based; design: time 10 day, dose 300 mg/kg/day; conditions: in vivo
[17] = Cmax in rat at 300 mg/kg/day measured after 1 day; format: ADME, organism-based; design: dose 300 mg/kg/day, time 1 day; conditions: in vivo
[18] = Cmax in rat at 300 mg/kg/day measured after 10 days; format: ADME, organism-based; design: time 10 day, dose 300 mg/kg/day; conditions: in vivo
CYP3A4 = CYP3A4 (Homo sapiens, UniProt P08684); experiment: Induction of CYP3A4 in human hepatocytes; format: ADME, cell-based, Liver
Sequence of CYP3A4 (P08684 whole entry): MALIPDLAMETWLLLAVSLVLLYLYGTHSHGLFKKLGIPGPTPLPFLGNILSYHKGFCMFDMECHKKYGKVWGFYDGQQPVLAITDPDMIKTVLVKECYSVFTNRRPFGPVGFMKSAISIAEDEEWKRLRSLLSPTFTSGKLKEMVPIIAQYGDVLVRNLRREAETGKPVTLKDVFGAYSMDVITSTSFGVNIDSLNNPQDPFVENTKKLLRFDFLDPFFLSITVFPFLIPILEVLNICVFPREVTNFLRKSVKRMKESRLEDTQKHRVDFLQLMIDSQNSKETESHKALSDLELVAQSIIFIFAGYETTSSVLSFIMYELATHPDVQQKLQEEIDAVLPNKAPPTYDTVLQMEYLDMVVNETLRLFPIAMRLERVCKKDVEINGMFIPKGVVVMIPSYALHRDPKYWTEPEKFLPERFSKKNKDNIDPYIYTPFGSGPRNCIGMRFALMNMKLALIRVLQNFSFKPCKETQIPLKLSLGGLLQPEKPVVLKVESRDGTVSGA

[19] = AUC (0 to t) in rat at 100 mg/kg/day measured after 1 day; format: ADME, organism-based; design: time 1 day, dose 100 mg/kg/day; conditions: in vivo
[20] = AUC (0 to t) in rat at 100 mg/kg/day measured after 10 days; format: ADME, organism-based; design: time 10 day, dose 100 mg/kg/day; conditions: in vivo
[21] = Cmax in rat at 100 mg/kg/day measured after 1 day; format: ADME, organism-based; design: dose 100 mg/kg/day, time 1 day; conditions: in vivo
[22] = Cmax in rat at 100 mg/kg/day measured after 10 days; format: ADME, organism-based; design: time 10 day, dose 100 mg/kg/day; conditions: in vivo
[23] = molecular target: T4, Extracellular calcium-sensing receptor (Homo sapiens, UniProt P41180); experiment: Antagonist activity at human CaSR in human HEK293 cells measured after 5 mins by FLIPR assay; format: functional, cell-based
T4 sequence (P41180 whole entry): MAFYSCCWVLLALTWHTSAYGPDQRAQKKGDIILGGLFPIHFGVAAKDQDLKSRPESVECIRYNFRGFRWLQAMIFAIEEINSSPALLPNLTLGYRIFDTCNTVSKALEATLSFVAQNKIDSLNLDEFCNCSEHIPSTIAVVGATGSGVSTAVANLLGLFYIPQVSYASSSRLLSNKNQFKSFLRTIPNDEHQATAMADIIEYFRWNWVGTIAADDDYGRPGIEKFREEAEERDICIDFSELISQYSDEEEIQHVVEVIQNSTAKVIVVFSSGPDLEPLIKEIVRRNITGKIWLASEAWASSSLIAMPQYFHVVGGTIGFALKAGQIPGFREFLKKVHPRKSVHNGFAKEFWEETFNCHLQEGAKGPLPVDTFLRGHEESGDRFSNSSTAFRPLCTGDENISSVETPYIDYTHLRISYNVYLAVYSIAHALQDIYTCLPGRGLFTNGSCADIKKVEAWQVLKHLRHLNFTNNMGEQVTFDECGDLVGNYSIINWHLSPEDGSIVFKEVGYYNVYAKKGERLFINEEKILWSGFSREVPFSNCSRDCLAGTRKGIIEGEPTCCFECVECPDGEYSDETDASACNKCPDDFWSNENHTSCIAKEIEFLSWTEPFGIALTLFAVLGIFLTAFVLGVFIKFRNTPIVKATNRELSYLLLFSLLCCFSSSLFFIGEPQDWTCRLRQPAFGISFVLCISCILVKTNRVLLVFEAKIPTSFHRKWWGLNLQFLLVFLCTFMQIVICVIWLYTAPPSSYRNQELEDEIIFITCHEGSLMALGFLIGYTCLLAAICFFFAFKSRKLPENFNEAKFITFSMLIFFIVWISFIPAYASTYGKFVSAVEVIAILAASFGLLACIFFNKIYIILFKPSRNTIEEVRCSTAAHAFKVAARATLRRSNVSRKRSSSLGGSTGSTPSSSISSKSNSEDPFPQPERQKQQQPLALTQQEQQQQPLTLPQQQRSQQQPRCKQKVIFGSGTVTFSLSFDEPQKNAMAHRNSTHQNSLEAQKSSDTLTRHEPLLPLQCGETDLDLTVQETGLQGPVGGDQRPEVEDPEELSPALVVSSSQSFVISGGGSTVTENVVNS

Cc1ncc(-c2c(C)nc(-c3cccc(F)c3O)n(CCc3ccccc3)c2=O)s1
Emax at 24 h, 50 µM (PXR (NR1I2)): 40% | pEC50 [1]: < 5.00

Cc1ccc(-c2c(C)nc(-c3cccc(F)c3O)n(CCc3ccccc3)c2=O)s1
pIC50 [2]: 7.29 | Emax at 24 h, 50 µM (PXR (NR1I2)): 122% | pEC50 [1]: 5.60 | AUC(0-t) at 24 h [3]: 2880 ng·h/mL | AUC(0-t) at 24 h [4]: 10800 ng·h/mL | AUC(0-t) at 24 h [5]: 15100 ng·h/mL | AUC(0-t) at 240 h [6]: 1260 ng·h/mL | AUC(0-t) at 240 h [7]: 2850 ng·h/mL | AUC(0-t) at 240 h [8]: 1580 ng·h/mL | Cmax [9]: 980 ng/mL | Cmax [10]: 2960 ng/mL | Cmax [11]: 3600 ng/mL | Cmax [12]: 820 ng/mL | Cmax [13]: 680 ng/mL | Cmax [14]: 480 ng/mL | AUC(0-t) at 24 h [15]: 2500 ng·h/mL | AUC(0-t) at 240 h [16]: 1800 ng·h/mL | Cmax [17]: 330 ng/mL | Cmax [18]: 360 ng/mL | Emax (CYP3A4): 10%

Cc1nc(-c2cccc(F)c2O)n(CCc2ccccc2)c(=O)c1-c1cc(-c2ccccn2)c(C)s1
Emax at 24 h, 50 µM (PXR (NR1I2)): 9% | pEC50 [1]: < 4.30 | AUC(0-t) at 24 h [19]: 29500 ng·h/mL | AUC(0-t) at 240 h [20]: 41100 ng·h/mL | Cmax [21]: 8900 ng/mL | Cmax [22]: 12000 ng/mL

Cc1ccc(-c2nc(CCc3ccccc3)c(-c3cccc(F)c3O)nc2C)s1
Emax at 24 h, 50 µM (PXR (NR1I2)): 110% | pEC50 [1]: 5.49

Cc1nc(-c2cccc(F)c2O)n(CCc2ccccc2)c(=O)c1-c1ccc(-c2ccccn2)s1
Emax at 24 h, 50 µM (PXR (NR1I2)): 36% | pEC50 [1]: 5.30

Cc1nc(-c2cccc(F)c2O)n(CCc2ccccc2)c(=O)c1-c1ccc(-c2ccccc2)s1
Emax at 24 h, 50 µM (PXR (NR1I2)): 60% | pEC50 [1]: 5.10

Cc1nc(-c2cccc(F)c2O)n(CCc2ccccc2)c(=O)c1Cc1ccccc1
Emax at 24 h, 50 µM (PXR (NR1I2)): 250% | pEC50 [1]: 6.00

Cc1nc(-c2cccc(F)c2O)n(CCc2ccccc2)c(=O)c1-c1ccc(CO)s1
Emax at 24 h, 50 µM (PXR (NR1I2)): 31% | pEC50 [1]: 4.89 | pIC50 [23]: < 5.00
